This is an account of results in patent US20040071656A1, “Modulation of heat-shock-protein-based immunotherapies” (priority 2001, published 2004).

The target of test [1] is T1, exoplasmic domain of human CD40 (GST-CD40) (Homo sapiens, UniProt P25942).
T1 construct: The cDNA for the exoplasmic domain of CD40 (amino acids 20-212); made in house; host or cells: E. coli, pGEX-2T
The test is described as follows: GST-CD40 binding and competition assay with recombinant Hsp70 and its domains. Here is the method: For binding assays with recombinant Hsp70 and its domains, 3 μM His6-Hsp70 or its His6-tagged domains were incubated with 2 mM ATP, 2 mM ADP or 2 mM ADP and 28 μM peptide C in 50 μl binding buffer (10 mM MOPS/KOH, pH 7.2, 150 mM KCl and 3 mM MgCl2) for 30 min at 37° C. In competition experiments binding was probed with either a 10-fold excess of Hsp70, the two domains, or DnaK, or with a 5-fold excess of Hip or Bag 1 for 10 min at 0° C. To this end, Hsp70, N70, C70 and DnaK were preincubated with ADP, ATP and peptide C as described above. For comparison of CD40 binding of Hsp70 and its N-terminal domain, Hsp70 was preincubated in the presence or absence (mock treatment) of a 30-fold molar excess of peptide C. 3 μM of GST or GST-CD40 was added to the samples and incubated for 20 min at 16° C. For titration of peptide C, 5- to 50-fold excess of peptide C (15-150 μM) was added to the preincubation of Hsp70. Thereafter the samples were combined with 20 μl of 1% BSA-treated Glutathione Sepharose 4 Fast Flow and incubated in the presence of 2 mM DTT for another 20 min at 16° C. Unbound proteins were removed by washing the beads three times with 1 ml PBS, and immobilized proteins eluted with 30 μl elution buffer for 20 min at 22° C. 10 μl of the eluates were subjected to SDS-PAGE and analyzed by immunoblotting using a Penta-His-antibody (Quiagen). Blot signals were quantified by Quantity One (Biorad).
Details for FIG. 3. Binding of Hsp70 to CD40 is direct and depends on ADP. A. Hela-cell lysates were incubated with GST (control), or GST-CD40 in the amounts indicated. Thereafter samples were affinity purified on glutathione-Sepharose as outlined in Experimental Procedures, subjected to SDS-PAGE and analyzed by immunoblotting with antibodies directed against Hsc70 and Hsp70 (upper lanes), and against Hsp90 (lower lanes). B. Human recombinant His6-tagged Hsp70 was incubated with ATP, ADP, or an excess of peptide C, followed by addition of GST-CD40 or GST alone. After affinity purification samples were analyzed by immunoblotting as described in A, using antibodies directed against the His6-tag. C. Recombinant human His6-tagged Hsp70 was incubated with peptide C, either in the presence or absence of ADP. The reactions were then incubated with ANA1-cell lysates as described in Experimental Procedures. Protein bound to Hsp70 was analyzed by affinity purification on Ni-NTA-agarose and immunoblotting with antibodies directed against CD40.
Details for FIG. 4. Hsp70 binding to CD40 is mediated by the N-terminal ATPase domain and is competed by Hip. A. Human His6-tagged Hsp70, its N- or C-terminal domains, or recombinant bacterial DnaK was incubated either with GST-CD40, or with GST. B. Recombinant DnaK was incubated with ATP, ADP, or an excess of peptide C, followed by addition of GST-CD40 or GST alone. C. His6-tagged N-terminal domain of Hsp70 (N70) was incubated in the presence of ATP or ADP, followed by incubation with a 10-fold molar excess of Hsp70 in the presence of ADP or ATP. D: Recombinant human His6-tagged Hsp70 protein was incubated with a 5-fold molar excess of either recombinant Hip protein or Bag-1, and with GST-CD40 or GST as a control. Bound protein was analyzed after affinity purification on glutathione-Sepharose by immunoblotting with an antibody directed against the N-terminal His6-tags or with an antibody directed against DnaK.
Details for FIG. 5. Peptide substrate stimulates Hsp70 binding to CD40. A. His6-tagged Hsp70 was incubated with increasing concentrations of peptide C as indicated in the Figure, and binding to GST-CD40 analyzed by immunoblotting with antibodies directed against the His6-tag. The lower panel is a quantitation of the data. B. Equivalent concentrations (3 μM) of His6-tagged Hsp70 (in the presence of a 30-fold molar excess of peptide C) or His6-tagged N70 was incubated with GST-CD40, and bound protein was analyzed as described above.

For test [2], the target named is T2, human CD40 (Homo sapiens, UniProt P25942).
T2 construct: CD40 full-length cDNA was cloned by PCR; expressed in transfected cells
T2 sequence (P25942 21-277): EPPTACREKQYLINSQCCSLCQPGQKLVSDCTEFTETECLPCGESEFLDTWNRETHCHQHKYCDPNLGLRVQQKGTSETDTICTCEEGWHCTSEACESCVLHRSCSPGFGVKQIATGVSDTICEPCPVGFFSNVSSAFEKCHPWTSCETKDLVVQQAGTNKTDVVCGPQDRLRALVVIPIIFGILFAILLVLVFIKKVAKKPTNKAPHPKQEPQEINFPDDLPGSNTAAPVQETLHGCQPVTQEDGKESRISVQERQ
The test can be described thus: Uptake of peptide C-FITC in HEK293T-CD40 cells, confocal microscopy. Format: cell-based. The settings on record: 0.5 μM protein, 5 μM peptide C-FITC, ADP, 30 min 0° C. then 15 min 37° C. Here is the method: For experiments to study uptake of Hsp70/peptide C-FITC complex, HEK293T-CD40 and HEK293T-MCAT cells were seeded on collagen-coated cover slips 24 h prior to the experiment. For complex formation Hsp70, its N-terminal domain (N70) or its C-terminal domain (C70) were preincubated with a 10-fold molar excess of peptide C-FITC for 30 min at 37° C., as described above for the biotinylated proteins. HEK293T-CD40 and HEK293T-MCAT were incubated with 0.5 μM of Hsp70, N70 or C70, preincubated with 2 mM ADP and 5 μM peptide C-FITC, or 5 μM peptide C-FITC alone for 30 min on ice. Thereafter the cells were washed three times with medium, incubated for 15 min at 37° C., and fixed, embedded in Fluoromount-G and analyzed by confocal microscopy (LSM 510, Zeiss).
Next, the binding of Hsp70-peptide complex to CD40 was studied, which results in the uptake of peptide. To this end, HEK293T-CD40 cells and HE293T-MCAT cells (not expressing CD40) were incubated with a fluorescent (FITC) derivative of peptide C for 30 min at 0° C. in the presence of ADP, with or without Hsp70 or its two domains. After removal of excess material, the cells were incubated at 37° C. for 15 min, fixed and then analyzed by fluorescence microscopy. […] (FIG. 6B, panel 1). […] Neither did HEK293T-MCAT control cells give rise to a signal under any of the conditions tested (not shown). We conclude that the specific interaction of CD40 with Hsp70-peptide complex mediates the uptake of peptide.
Details for FIG. 6. Binding of Hsp70 complex to CD40-expressing HEK293T cells induces signaling via p38 and causes peptide uptake. A. HEK293T-cells, stably transfected with cDNA encoding human CD40 or the unrelated membrane protein murine cationic amino acid transporter (MCAT) were incubated for 20 min at 37° C. with CD40L or with Hsp70, C70, N70, bacterial DnaK either in the presence of ADP or AMPPNP, or buffer alone. Thereafter cells were washed, solubilized in SDS-sample buffer, and analyzed by immunoblotting with antibodies directed against phosphorylated (active) p38. Blots were also developed with an antibody against tubulin in order to control for equal loading. B. Cells were incubated at 0° C. for 30 min with recombinant human Hsp70, N70, or C70, all in the presence FITC-labeled peptide, or with the FITC-labeled peptide alone. Thereafter cells were washed, incubated for 15 min at 37° C., and processed for fluorescence microscopy. Upper left panel: Hsp70, upper right panel: FITC-labeled peptide alone, lower left panel: C70, lower right panel: N70. Only cells stably transfected with CD40 are shown. Cell boundaries are emphasized with broken lines.

A further test addresses Hsp70. The following applies: Greene et al., 1995; read-out: affinity of peptide C for Hsp70; cited from earlier work.
Test [3] deals with T2, human CD40. The test can be described thus: Binding to Cos-7 cells transiently transfected with human CD40 cDNA, fluorescence microscopy. Format: cell-based. The following applies: 250 nM biotinylated protein, 30 min at 0° C. How it is done:
Cell culture and fluorescence microscopy. The murine macrophage cell line ANA1 was kindly provided by H. Wagner (Munich, Germany). ANA-1 cells were cultured in VLE-RPMI 1640 (Biochrom), supplemented with 10% FCS, 2 mM L-glutamine and antibiotics. For fluorescence microscopy, ANA1 cells were either stimulated with LPS (20 μg/ml, Sigma, Germany), or kept in an LPS-free medium (mock treatment) for 7 h. After stimulation, cells were harvested and incubated with 100 nM biotinylated Hsp70, biotinylated GST, or Hsp70/peptide C-biotin complex for 30 min at 0° C. in VLE-RPMI 1640. After incubation cells were processed for staining with streptavidin-TRITC (Sigma, Germany), fixed with paraformaldehyde and analyzed by fluorescence microscopy (Axiovert 35, Zeiss) as described (Sondermann et al., 2000). […] Twenty-four h post-transfection cells were incubated with 250 nM biotinylated Hsp70, biotinylated GST or Hsp70/peptide C-biotin complex for 30 min at 0° C. in DMEM, fixed, stained with streptavidin-TRITC (Sigma, Germany), and analyzed by fluorescence microscopy as described (Sondermann et al., 2000, idem). […] Stably transfected cell lines were analyzed by immunoblotting for CD40 expression using an anti-CD40 antibody (CSA180, Stressgen). […]
Mock-treated and LPS-stimulated ANA-1 cells were analyzed for their expression of CD40. […]

Test [4] addresses T1, exoplasmic domain of human CD40 (GST-CD40). The test can be described thus: GST-CD40 pull-down of endogenous heat shock proteins from Hela cell lysate. Format: binding. The following applies: 80 or 400 pmol GST-CD40, immunoblot. Here is the method: Binding assays with GST-CD40. For binding of endogenous Hsp70 and Hsc70 from Hela cell lysate, Hela cells were lysed as described above and centrifuged at 100,000 g at 4° C. for 1 h. 20 μl bed volume of Glutathione Sepharose 4 Fast Flow (Amersham Pharmacia) per sample were preincubated with 80 pmol or 400 pmol of GST or GST-CD40 fusion protein in 50 μl binding buffer. Unbound protein was removed by washing three times with PBS. The beads were treated with 1% BSA/PBS to avoid non-specific binding, and than incubated with 150 μl of Hela cell lysate in the presence of 2 mM DTT for 20 min at 16° C. […] 10 μl of the eluates was subjected to SDS-PAGE and analyzed by immunoblotting using an anti-Hsc/Hsp70 antibody and an anti-Hsp90: antibody (SPA822 and SPA835, Stressgen). […]
Details for FIG. 3. […] Thereafter samples were affinity purified on glutathione-Sepharose as outlined in Experimental Procedures, subjected to SDS-PAGE and analyzed by immunoblotting with antibodies directed against Hsc70 and Hsp70 (upper lanes), and against Hsp90 (lower lanes). […] After affinity purification samples were analyzed by immunoblotting as described in A, using antibodies directed against the His6-tag. […] Protein bound to Hsp70 was analyzed by affinity purification on Ni-NTA-agarose and immunoblotting with antibodies directed against CD40.

No end group written: not given here. *: point of attachment. FITC = O=C1OC2(c3ccc(O)cc3Oc3cc(O)ccc32)c2ccc(NC(=S)*)cc21

T1 sequence (P25942 20-212): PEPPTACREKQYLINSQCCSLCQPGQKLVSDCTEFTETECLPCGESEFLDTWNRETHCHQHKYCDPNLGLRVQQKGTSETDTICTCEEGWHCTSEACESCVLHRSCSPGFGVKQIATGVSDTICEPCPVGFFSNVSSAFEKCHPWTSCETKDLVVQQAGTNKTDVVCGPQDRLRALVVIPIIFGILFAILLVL

In the case of “C70: Recombinant C-terminal peptide-binding domain of human Hsp70, residues 382-641”, the “competition for the binding of full-length Hsp70 to CD40” value in test [1] (ADP, 5-fold molar excess of competitor) is given as “neither the C-terminal Hsp70 domain (C70) nor DnaK had a significant effect on binding”. For the same substance, the “uptake of fluorescent (FITC) peptide C into HEK293T-CD40 cells” value with human CD40 [2] is on record as “did not result in a peptide signal above background”.

As to “FITC-GCEVFGLGWRSYKH ({FITC}-GCEVFGLGWRSYKH) [reference compound]”, the “uptake of fluorescent (FITC) peptide C into HEK293T-CD40 cells” value with human CD40 [2] is given as “No staining above background”.

Take “GCEVFGLGWRSYKH [peptide C, reference compound]”: in test [1] (5- to 50-fold excess of peptide C (15-150 μM), ADP), the “effect of peptide C on binding of Hsp70-ADP to CD40” value was “increased dramatically”. Also, the “effect of peptide C on binding of DnaK to CD40” value in test [1] (10-fold molar excess of peptide C) is given as “almost completely abolishes the binding of DnaK to CD40”. The “competition of peptide C with the Hsp70-CD40 interaction” value in test [1] (molar excess of peptide C over Hsp70, ADP) is on record as “did not compete with the interaction”. In addition, the “ka of the saturable effect of peptide on Hsp70-ADP binding to CD40” value in test [1] (titration of peptide C, 3 μM Hsp70, ADP) is about 30 µM. Further, the Kd on Hsp70 was 5 to 10 µM. In addition, the “binding to CD40-transfected Cos-7 cells” value on human CD40 [3] was “no binding above background”.

Regarding “Hsc70: Endogenous mammalian Hsp70 family member in Hela-cell lysates”, the “binding to GST-CD40 from Hela-cell lysates” value in test [4] is “bound to GST-CD40 in a concentration dependent manner”.
